Data from publication PMC9154810, “Selective inhibition of carbonic anhydrase IX by sulphonylated 1,2,3-triazole incorporated benzenesulphonamides capable of inducing apoptosis” (Journal of Enzyme Inhibition and Medicinal Chemistry, 2022).
Like-named read-outs stand apart in the source and are kept apart here.

Assays:
testicular cells = test: EB/AO differential staining, apoptosis detection and quantification; type: cell-based, Goat (Capra hircus); settings: 10 µM, 6 h, mean ± SEM; control 7.33 ± 0.33
Description: (§1) Goat (Capra hircus) testicular tissues were procured from slaughterhouses of Chandigarh (30°43′ N, 76°12′ E) and around Kurukshetra (29°6′ N, 76°50′ E) in 0.9% normal saline at 4 °C. The testicular cells/tissues were cultured in vitro in media-TCM199 and exposed to 10 µM concentration of given compounds for 6 h in a CO2 incubator with 5% CO2 and 95% humidity at 38 °C temperature.[22]^,[23]
Ethidium bromide and acridine orange (EB/AO) staining was used to determine the cyto-genotoxic nature of given compounds in testicular cells.[25] Briefly, the testicular cell suspension prepared from the treated testicular tissue was mixed with equal volume of EB/AO differential stain on a glass slide and covered with a coverslip. Observation and quantification of apoptotic cells were done with fluorescence microscope (Olympus, Japan) using filters of 500–525 nm. Cells appearing bright green were marked as normal healthy cells, while cells displaying orange-red fluorescence were marked as apoptotic.

hCA II = hCA II (Homo sapiens, UniProt P00918); test: stopped-flow CO2 hydrase assay, hCA II
Description: (§2) An Sx.18Mv-R Applied Photophysics (Oxford, UK) stopped-flow instrument was used to assay the catalytic activity of various CA isozymes for CO2 hydration reaction.[21]

hCA I = hCA I (Homo sapiens, UniProt P00915); test: stopped-flow CO2 hydrase assay, hCA I
Description: as §2

hCA IX = hCA IX (Homo sapiens, UniProt Q16790); test: stopped-flow CO2 hydrase assay, hCA IX; settings: for Selectivity index I/IX: ratio KI hCA I / KI hCA IX; for Selectivity index II/IX: ratio KI hCA II / KI hCA IX
Description: as §2

hCA IV = hCA IV (Homo sapiens, UniProt P22748); test: stopped-flow CO2 hydrase assay, hCA IV
Description: as §2

[1] = MTT assay, cell viability; type: cell-based; settings: goat (Capra hircus), primary goat testicular cells, mean ± SEM, read-out: percent cell viability
Description: as §1
Testicular cells were cultured in 96-well plates. Wells for blank control were without any cells and contained MTT [3-(4,5-dimethylthiazol-2-yl)-2,5-diphenyl-tetrazolium-bromide)], culture medium, and DMSO. The remaining wells were seeded with testicular cells, which were treated with given compounds at 10 µM concentration for 6 h. Post treatment, 10 µL of MTT stock solution was added to each well, and the reaction mixture was incubated for 2 h. After that 200 µL of DMSO was added in each well, followed by shaking for 10 min. Absorbance of reaction mixture was taken at 470 nm.

[2] = mean from three assays, stopped-flow technique, errors ± 5–10%

hCA I, sequence (P00915 whole entry): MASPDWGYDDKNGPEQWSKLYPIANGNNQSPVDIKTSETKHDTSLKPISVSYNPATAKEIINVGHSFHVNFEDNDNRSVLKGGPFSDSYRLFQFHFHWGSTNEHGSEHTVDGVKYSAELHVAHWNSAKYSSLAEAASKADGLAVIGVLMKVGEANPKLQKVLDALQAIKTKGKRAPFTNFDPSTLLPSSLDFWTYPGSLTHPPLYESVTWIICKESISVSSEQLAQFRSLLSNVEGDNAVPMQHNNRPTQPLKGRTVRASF
hCA IV, sequence (P22748 19-312): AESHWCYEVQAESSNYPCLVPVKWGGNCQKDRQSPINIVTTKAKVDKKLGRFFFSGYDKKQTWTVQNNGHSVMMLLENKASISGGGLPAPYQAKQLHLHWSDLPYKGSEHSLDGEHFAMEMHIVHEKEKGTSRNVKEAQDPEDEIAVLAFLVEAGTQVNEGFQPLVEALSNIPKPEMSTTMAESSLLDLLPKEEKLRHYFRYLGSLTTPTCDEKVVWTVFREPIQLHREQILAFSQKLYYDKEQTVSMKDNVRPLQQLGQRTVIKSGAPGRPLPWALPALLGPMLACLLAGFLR

Ki (hCA II) [nM]	Ki (hCA I; [2]) [nM]	Ki (hCA IX) [nM]	Selectivity index I/IX (hCA IX)	Selectivity index II/IX (hCA IX)	melting point [°C]	Ki (hCA IV) [nM]	Ki (hCA I) [nM]	selectivity for hCA IX over hCA I (hCA IX)	SMILES	percent apoptosis (testicular cells) [%]	viability at 6 h, 10 µM [1] [%]
58.4	696	16.4	42.42	3.56	123 to 125	91.8	–	–	NS(=O)(=O)c1cccc(-n2nnc(S(=O)(=O)c3ccccc3)c2-c2ccc(Cl)cc2)c1 [Compound 10d, 3-(5-(4-chlorophenyl)-4-(phenylsulphonyl)-1H-1,2,3-triazol-1-yl)benzenesulphonamide]	35.00 ± 1.15	32 ± 6.92
649	8030	22.8	352.32	28.45	231 to 233	6050	8030	more than 100 fold	COc1ccc(-c2c(S(=O)(=O)c3ccccc3)nnn2-c2cccc(S(N)(=O)=O)c2)cc1Br [Compound 10h, 3-(5-(3-bromo-4-methoxyphenyl)-4-(phenylsulphonyl)-1H-1,2,3-triazol-1-yl)benzenesulphonamide]	29.33 ± 1.45	46.7 ± 4.8
220	7840	30.1	260.40	7.32	198 to 200	801	–	more than 100 fold	NS(=O)(=O)c1ccc(-n2nnc(S(=O)(=O)c3ccccc3)c2-c2ccc(Br)cc2)cc1 [Compound 9e, 4-(5-(4-bromophenyl)-4-(phenylsulphonyl)-1H-1,2,3-triazol-1-yl)benzenesulphonamide]	–	–
138	636	25.1	25.33	5.50	96 to 98	80.1	–	–	NS(=O)(=O)c1cccc(-n2nnc(S(=O)(=O)c3ccccc3)c2-c2ccc(Br)cc2)c1 [Compound 10e, 3-(5-(4-bromophenyl)-4-(phenylsulphonyl)-1H-1,2,3-triazol-1-yl)benzenesulphonamide]	–	–
